# Assay results taken from patent publication US20020082263A1, “Heterocycle derivatives as PPAR-gamma agonists” (priority 2000, published 2002).
# Columns and labels:
# PPAR-gamma = target: T1, PPAR-gamma (Homo sapiens, UniProt P37231); test: Reporter gene assay in transfected HepG2 cells: transcriptional activation of a PPRE via a PPAR-gamma mediated pathway; assay type: cell-based; settings: transfected human hepatoma (HepG2) cells, 36-48 h exposure, reporter gene activity
# T1 construct: host or cells: HepG2 (human hepatoma), transfected
# T1 sequence (P37231 1-505): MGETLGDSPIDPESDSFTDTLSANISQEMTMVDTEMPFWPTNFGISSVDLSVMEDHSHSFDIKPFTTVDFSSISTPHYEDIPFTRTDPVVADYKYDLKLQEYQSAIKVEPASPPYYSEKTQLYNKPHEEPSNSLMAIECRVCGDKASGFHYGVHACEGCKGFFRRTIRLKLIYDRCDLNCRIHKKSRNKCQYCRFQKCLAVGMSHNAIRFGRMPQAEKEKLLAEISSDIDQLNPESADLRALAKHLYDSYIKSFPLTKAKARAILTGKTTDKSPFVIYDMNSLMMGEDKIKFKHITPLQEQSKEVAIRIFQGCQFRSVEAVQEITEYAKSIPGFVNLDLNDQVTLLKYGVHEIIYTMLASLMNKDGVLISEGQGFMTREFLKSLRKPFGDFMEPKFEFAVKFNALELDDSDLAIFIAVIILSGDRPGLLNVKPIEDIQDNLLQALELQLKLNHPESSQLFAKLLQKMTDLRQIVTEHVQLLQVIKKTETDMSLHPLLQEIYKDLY
# Experimental: A reporter gene assay utilizing transfected human hepatoma (HepG2) cells is used to screen for compounds that transcriptionally activate a PPRE via a PPAR-gamma mediated pathway. Cells are exposed to experimental compounds dissolved in DMSO for 36-48 h prior to determination of reporter gene activity. 15dPGJ2 (2 μM) is used as positive control and vehicle (DMSO) is used as a negative control.
# [1] = tested on: db/db mice (C578BL/KsJ-db/db Jcl); test: Effect on serum glucose and serum insulin in db/db mice; assay type: in vivo, mouse; settings: oral; for Serum Glucose (% reduction) / Serum Insulin (% reduction): blood 1.5 h after last dose vs pretreatment blood, mean ± SEM
# Experimental: Compounds prepared in accordance with Examples 8 and 36 were evaluated for their effect on serum glucose and serum insulin in db/db mice (C578BL/KsJ-db/db Jcl). The compounds were dissolved in a vehicle consisting of 2% Tween80 in distilled water and administered orally. Dosage volume was 10 ml/kg body weight. All aspects of the work including experimentation and disposal of the animals was performed in general accordance with the International Guiding Principles for Biomedical Research Involving Animals (CIOMS Publication No. ISBN 92 90360194, 1985). Glucose-HA Assay kits (Wako, Japan) were used for determination of serum glucose and ELISA Mouse Insulin Assay kits (SPI bio, France) were utilized for determination of insulin. The positive control was troglitazone (Helios Pharmaceutical, Louisville, Ky.).
# The animals were divided into twenty groups of four animals each. The animals weighed 52±5 gms at age 8-10 weeks. During the experiment the animals were provided free access to laboratory chow (Fwusow Industry Co., Taiwan) and water
# Prior to any treatment a blood sample (pretreatment blood) was taken from each animal. Four groups of animals, the vehicle groups, received only doses of the vehicle. Each of the vehicle groups received of 100, 30, 10 or 1 ml/kg body weight of the vehicle orally. […] The compound of Example 8 was administered orally as a solution (10 ml/kg body weight in tween 80/water) to four groups of animals with each group receiving a different dose of the compound. The dosage rates were […] body weight with only one dosage rate administered to each group. […] The vehicle, positive control and test compound solutions were administered to the groups immediately, 24 hours and 48 hours after drawing the pretreatment blood. Blood was withdrawn (post treatment blood) 1.5 hours after administration of the last dose.
# The serum glucose levels of the blood samples was determined enzymatically (Mutaratose-GOD) and the insulin levels by ELISA (mouse insulin assay kit). The mean ±SEM of each group was calculated and the percent inhibition of serum glucose and insulin was obtained by comparison between pretreatment blood and post treatment blood. The percentage of reduction of the serum glucose and insulin levels in the post treatment blood relative to the pretreatment blood was determined and the Unpaired students t test was applied for the comparison between the control and test solution groups and the vehicle group. A significant difference was considered at P<0.05.
# [2] = 100 mg/kg body weight, P<0.01, unpaired t test
smiles,measurement,setting,value
"CNC(=O)CC1CN(Cc2cc(OC)cc(OC)c2)C(=O)[C@H](CC(C)C)N1C(=O)NC1CCCCC1 (stereo partly drawn) [Example 32, N-Methyl[1-cyclohexylcarbamoyl-4-(3,5-dimethoxybenzyl)-6-(S)-isobutyl-5-oxo-piperazin-2-yl]-acetamide]",EC50,PPAR-gamma,0.62 µM
"CCCCNC(=O)CC1CN(Cc2cc(OC)cc(OC)c2)C(=O)[C@H](CC(C)C)N1C(=O)NC1CCCCC1 (stereo partly drawn) [Example 35, N-Butyl[1-cyclohexylcarbamoyl-4-(3 ,5-dimethoxybenzyl)-6-(S)-isobutyl-5-oxo-piperazin-2-yl]-acetamide]",EC50,PPAR-gamma,0.12 µM
"CCCCNC(=O)C[C@@H]1CN(Cc2cc(OC)cc(OC)c2)C(=O)[C@H](CC(C)C)N1C(=O)NC1CCCCC1 [Example 36, N-Butyl (R)-[1-cyclohexylcarbamoyl-4-(3 5-dimethoxybenzyl)-6-(S)-isobutyl-5-oxo-piperazin-2-yl]-acetamide]",Serum Glucose (% reduction),"[1]; 1 mg/kg at 0, 24 and 48 h",−1 ± 2%
same,Serum Insulin (% reduction),"[1]; 1 mg/kg at 0, 24 and 48 h",8 ± 7%
same,Serum Glucose (% reduction),"[1]; 3 mg/kg at 0, 24 and 48 h",0 ± 2%
same,Serum Insulin (% reduction),"[1]; 3 mg/kg at 0, 24 and 48 h",−9 ± 2%
same,Serum Glucose (% reduction),"[1]; 10 mg/kg at 0, 24 and 48 h",−4 ± 7%
same,Serum Insulin (% reduction),"[1]; 10 mg/kg at 0, 24 and 48 h",−9 ± 6%
same,Serum Glucose (% reduction),"[1]; 30 mg/kg at 0, 24 and 48 h",37 ± 8%
same,Serum Insulin (% reduction),"[1]; 30 mg/kg at 0, 24 and 48 h",1 ± 2%
same,reduction of serum glucose relative to the vehicle treated groups (in words),"[1]; 30 mg/kg body weight, P<0.05, unpaired t test",significant reduction
same,Serum Glucose (% reduction),"[1]; 100 mg/kg at 0, 24 and 48 h",40 ± 7%
same,Serum Insulin (% reduction),"[1]; 100 mg/kg at 0, 24 and 48 h",2 ± 4%
same,reduction of serum glucose relative to the vehicle treated groups (in words),[1]; [2],significant reduction
"Cc1c(C)c2c(c(C)c1O)CCC(C)(COc1ccc(CC3SC(=O)NC3=O)cc1)O2 (centres unmarked) [troglitazone, reference compound]",Serum Glucose (% reduction),"[1]; 10 mg/kg at 0, 24 and 48 h",25±2%
"CCCC[C@H]1C(=O)N(Cc2cc(OC)cc(OC)c2)CC(CC(=O)NC)N1C(=O)NC1CCCCC1 (stereo partly drawn) [Example 41, N-Methyl[1-cyclohexylcarbamoyl-4-(3,5-dimethoxybenzyl)-6-(S)-butyl-5-oxo-piperazin-2-yl]-acetamide]",EC50,PPAR-gamma,2.35 µM
"CCNC(=O)CC1CN(Cc2cc(OC)cc(OC)c2)C(=O)[C@H](CC(C)C)N1C(=O)NC1CCCCC1 (stereo partly drawn) [Example 42, N-Ethyl[1-cyclohexylcarbamoyl-4-(3,5-dimethoxybenzyl)-6-(S)-isobutyl-5-oxo-piperazin-2-yl]-acetamide]",EC50,PPAR-gamma,0.25 µM
"COc1cc(CN2C[C@@H](CC(=O)NCC3CCCO3)N(C(=O)NC3CCCCC3)[C@@H](CC(C)C)C2=O)cc(OC)c1 (stereo partly drawn) [Example 8, N-Tetrahydrofurfuryl (R)-[1-cyclohexylcarbamoyl-4-(3,5-dimethoxybenzyl)-6-(S)-isobutyl-5-oxo-piperazin-2-yl]-acetamide]",Serum Glucose (% reduction),"[1]; 1 mg/kg at 0, 24 and 48 h",9 ± 8%
same,Serum Insulin (% reduction),"[1]; 1 mg/kg at 0, 24 and 48 h",3 ± 7%
same,Serum Glucose (% reduction),"[1]; 3 mg/kg at 0, 24 and 48 h",−1 ± 3%
same,Serum Insulin (% reduction),"[1]; 3 mg/kg at 0, 24 and 48 h",−7 ± 3%
same,Serum Glucose (% reduction),"[1]; 10 mg/kg at 0, 24 and 48 h",18 ± 6%
same,Serum Insulin (% reduction),"[1]; 10 mg/kg at 0, 24 and 48 h",1 ± 4%
same,Serum Glucose (% reduction),"[1]; 30 mg/kg at 0, 24 and 48 h",14 ± 2%
same,Serum Insulin (% reduction),"[1]; 30 mg/kg at 0, 24 and 48 h",5 ± 4%
same,Serum Glucose (% reduction),"[1]; 100 mg/kg at 0, 24 and 48 h",41 ± 6%
same,Serum Insulin (% reduction),"[1]; 100 mg/kg at 0, 24 and 48 h",6 ± 2.5%
same,reduction of serum glucose relative to the vehicle treated groups (in words),[1]; [2],significant reduction
"COc1cc(CN2CC(CC(=O)NCCO)N(C(=O)NC3CCCCC3)[C@@H](CC(C)C)C2=O)cc(OC)c1 (stereo partly drawn) [Example 43, N-(2-Hydroxyethyl)[1-cyclohexylcarbamoyl-4-(3,5-dimethoxybenzyl)-6-(S)-isobutyl-5-oxo-piperazin-2-yl]-acetamide]",EC50,PPAR-gamma,> 1 µM
